Laboratory results reported in patent publication US11541083B2, “Methods and probiotic compositions for the treatment of bone disorders” (Research Development Foundation, priority 2018, dated 2023).

System: ovariectomized mice
Assay: 3-point bending biomechanical test on femur of ovariectomized mice after single microbe transplantation
Format: in vivo
Description: Animals: All C57BL/6J mice were purchased from Janvier Labs, and kept in a specific pathogen-free (SPF) facility in individually ventilated cages. All the mice were in a 12 h day/night cycle and fed a standard chow diet (16.2 MJ/kg Gross Energy; 9 kJ % Fat, 33 kJ % Protein, 58 kJ % Carbohydrates, V1534-727, Ssniff, Germany). All the mice were either male and entered the experiment at 8 weeks of age, or female starting at 16 weeks of age (for the ovariectomy experiment). Acclimatized animals were allocated into groups based on their body weight to ensure equal starting points. Warmth exposure was done at 34° C. in a light and humidity-controlled climatic chamber (TSE, Germany) in SPF conditions using individually ventilated cages All mice were sacrificed after 5 h fasting. Bone samples for CT-scan and biomecanics analysis were stored in a humid package at −20° C. All animal experiments were approved by the Swiss federal and Geneva cantonal authorities for animal experimentation (Office Vétérinaire Fédéral and Commission Cantonale pour les Expériences sur les animaux de Genève).
Ovariectomy: Mice were anesthetised with Xylazin/Ketamin (injection of 120 μl of a mixture of 120 mg/kg ketamine and 16 mg/kg xylazine) and shaved below the ribs on the back side. Betadine was applied to the area for appropriate disinfection. After a 1-2 cm incision through the skin and the muscle layer just below the ribs, the ovary was localized, the fallopian tube ligated with dissolving suture and the ovary removed. […]
Biomechanical analysis of the bones: We used a 3-points bending test to measure biomechanical parameters of the bone. […] Mechanical resistance to failure (displacement and load applied) was measured using a servo-controlled electromechanical system (Instron 1114, Instron corp., High Wycombe, UK) with actuator displaced at 2 mm/minute. Ultimate force (maximal load, measured in Newtons [N]), Yield point (N), stiffness (elastic energy, N/mm), and energy to fracture (surface under the curve of the plastic region, N*mm) were calculated. Young's modulus (MPa) was determined.

[1] = gavage every second day for 2 month, starting 3 days post-surgery

Lactobacillus reuteri
increased displacement (post-yield displacement), femur [1]: reduce or prevent | reduction in ultimate force (ultimate strength), femur [1]: reduce or prevent the reduction | bone fragility induced by ovariectomy (legend of FIGS. 7A-C, overall statement): can reduce or prevent
